From patent US8557839B2, “Fused ring azadecalin glucocorticoid receptor modulators” (Corcept Therapeutics, Inc., priority 2004, dated 2013)

Experiments:
[1] = biological target: T1, mineralocorticoid (MR) receptor (Homo sapiens, UniProt P08235); experiment: MR functional assay using T47D/MMTV-5 cells; assay type: cell-based; conditions: read-out: inhibition of the MR functional response
T1 construct: containing endogenous mineralocorticoid-(MR) and progesterone (PR) receptors; endogenous in cells; host or cells: T47D/MMTV-5 (human breast carcinoma, stably carrying the pMAMneo-Luc reporter)
T1 sequence (P08235 1-984): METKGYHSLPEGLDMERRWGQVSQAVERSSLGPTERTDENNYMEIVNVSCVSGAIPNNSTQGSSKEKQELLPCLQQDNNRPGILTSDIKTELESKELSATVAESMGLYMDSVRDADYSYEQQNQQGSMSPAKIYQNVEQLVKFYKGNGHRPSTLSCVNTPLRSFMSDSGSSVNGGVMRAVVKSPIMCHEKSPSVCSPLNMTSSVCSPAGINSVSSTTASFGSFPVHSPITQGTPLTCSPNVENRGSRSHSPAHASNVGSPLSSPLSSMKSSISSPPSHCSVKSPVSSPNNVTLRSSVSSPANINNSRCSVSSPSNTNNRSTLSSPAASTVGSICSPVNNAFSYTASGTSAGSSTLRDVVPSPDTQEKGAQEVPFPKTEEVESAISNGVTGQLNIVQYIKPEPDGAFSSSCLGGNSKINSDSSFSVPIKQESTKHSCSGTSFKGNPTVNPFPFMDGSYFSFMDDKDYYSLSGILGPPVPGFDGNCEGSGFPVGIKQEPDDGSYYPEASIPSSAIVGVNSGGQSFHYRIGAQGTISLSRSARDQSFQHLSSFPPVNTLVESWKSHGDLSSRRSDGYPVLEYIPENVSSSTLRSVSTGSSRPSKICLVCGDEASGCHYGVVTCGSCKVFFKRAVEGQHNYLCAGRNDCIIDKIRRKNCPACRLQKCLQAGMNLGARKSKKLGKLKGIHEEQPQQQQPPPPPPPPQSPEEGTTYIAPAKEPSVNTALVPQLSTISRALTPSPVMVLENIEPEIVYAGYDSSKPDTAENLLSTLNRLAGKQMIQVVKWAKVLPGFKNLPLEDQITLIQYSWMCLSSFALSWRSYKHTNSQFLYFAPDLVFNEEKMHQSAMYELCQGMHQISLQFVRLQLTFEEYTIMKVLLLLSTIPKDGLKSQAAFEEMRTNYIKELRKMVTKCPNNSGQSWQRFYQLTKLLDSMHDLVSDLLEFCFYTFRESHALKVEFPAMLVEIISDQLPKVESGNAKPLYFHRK
Experimental: (§1) As for the SW 1353 cell line, T47D cells was transfected with the same pMAMneo-Luc plasmid, and stable lines selected with geneticin.
(§2) T47D/MMTV-5 cells were distributed in 96-well plates (100 μl) in RPMI1640 medium +10% Charcoal stripped FCS. The cells were incubated for 24 hrs in the CO2-oven. A volume of 100 μl of the compound dilutions in medium +agonist (500 nM aldost; 50 nM progest) were added, and the plates further incubated for another 24 hrs after which the luciferase expression was measured.

[2] = biological target: T2, progesterone (PR) receptor (Homo sapiens, UniProt P06401); experiment: PR functional assay using T47D/MMTV-5 cells; assay type: cell-based; conditions: read-out: inhibition of the PR agonist response
T2 construct: containing endogenous mineralocorticoid-(MR) and progesterone (PR) receptors; endogenous in cells; host or cells: T47D/MMTV-5 (human breast carcinoma, stably carrying the pMAMneo-Luc reporter)
T2 sequence (P06401 1-933): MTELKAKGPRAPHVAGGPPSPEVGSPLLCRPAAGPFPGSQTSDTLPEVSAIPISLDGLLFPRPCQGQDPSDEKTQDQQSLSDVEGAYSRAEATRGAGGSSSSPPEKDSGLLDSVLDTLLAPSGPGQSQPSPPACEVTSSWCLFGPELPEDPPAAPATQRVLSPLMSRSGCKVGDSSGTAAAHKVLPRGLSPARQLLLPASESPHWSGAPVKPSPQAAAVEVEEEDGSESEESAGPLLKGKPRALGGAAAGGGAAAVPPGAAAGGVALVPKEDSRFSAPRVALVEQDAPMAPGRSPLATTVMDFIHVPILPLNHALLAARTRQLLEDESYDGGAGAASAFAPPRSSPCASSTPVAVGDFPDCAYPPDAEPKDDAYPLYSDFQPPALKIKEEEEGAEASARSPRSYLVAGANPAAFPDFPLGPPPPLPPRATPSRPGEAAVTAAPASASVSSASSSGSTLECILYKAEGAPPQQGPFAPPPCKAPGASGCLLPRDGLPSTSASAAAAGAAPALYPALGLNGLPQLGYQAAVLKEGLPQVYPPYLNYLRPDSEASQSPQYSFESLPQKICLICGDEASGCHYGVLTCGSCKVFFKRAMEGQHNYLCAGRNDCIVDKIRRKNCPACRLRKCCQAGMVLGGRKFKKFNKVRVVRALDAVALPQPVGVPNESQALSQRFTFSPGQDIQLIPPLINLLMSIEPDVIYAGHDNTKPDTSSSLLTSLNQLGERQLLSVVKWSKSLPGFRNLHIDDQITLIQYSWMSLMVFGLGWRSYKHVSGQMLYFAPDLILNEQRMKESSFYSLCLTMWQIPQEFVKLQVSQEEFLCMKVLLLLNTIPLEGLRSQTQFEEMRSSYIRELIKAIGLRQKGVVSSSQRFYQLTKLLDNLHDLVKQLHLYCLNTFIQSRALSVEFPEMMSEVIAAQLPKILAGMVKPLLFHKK
Experimental: as §1, §2

## CC(C)(C)c1ccc(S(=O)(=O)N2CCC3=Cc4c(cnn4-c4ccc(F)cc4)C[C@]3(C)C2)cc1 [Example 29, (S)-6-(4-tert-Butyl-benzenesulfonyl)-1-(4-fluoro-phenyl)-4a-methyl-4,4a,5,6,7,8-hexahydro-1H-1,2,6-triaza-cyclopenta[b]naphthalene]
[1]
  inhibition at 3 µM: 10%
[2]
  inhibition at 3 µM: 8%
